Columns and labels:
[1] = test system: Canis familiaris; experiment: Peripheral vasodilating activity in mongrel dog assessed as increase in iliac blood flow at 1600 ug, ia in presence of isoproterenol and 2000 ug/kg timolol; format: functional, Canis lupus familiaris, Artery
[2] = test system: Canis familiaris; experiment: In-vivo beta-adrenergic blocking activity in iv dosed mongrel dog assessed as blockade of isoproterenol-induced hypotension by measuring mean arterial pressure; format: functional; conditions: Canis lupus familiaris, Artery
[3] = test system: Canis familiaris; experiment: In-vivo beta-adrenergic blocking activity in iv dosed mongrel dog assessed as blockade of isoproterenol-induced tachycardia by measuring heart rate; format: functional; conditions: Canis lupus familiaris
[4] = test system: Rattus norvegicus; experiment: Antihypertensive activity in spontaneously hypertensive rat assessed as maximum fall in mean arterial pressure at 0.312 mg/kg, po; format: functional, Artery
[5] = test system: Rattus norvegicus; experiment: Antihypertensive activity in spontaneously hypertensive rat assessed as maximum fall in mean arterial pressure at 1.25 mg/kg, po; format: functional, Artery
[6] = test system: Rattus norvegicus; experiment: Antihypertensive activity in spontaneously hypertensive rat assessed as maximum fall in mean arterial pressure at 5 mg/kg, po; format: functional, Artery
[7] = species on record: Canis familiaris; experiment: Peripheral vasodilating activity in mongrel dog assessed as increase in iliac blood flow at 1600 ug, ia; format: functional, Canis lupus familiaris, Artery
[8] = test system: Canis familiaris; experiment: In-vivo beta-adrenergic blocking activity in iv dosed mongrel dog assessed as blockade of isoproterenol-induced bronchodilation by measuring pulmonary pressure; format: functional; conditions: Canis lupus familiaris
[9] = species on record: Canis familiaris; experiment: Peripheral vasodilating activity in mongrel dog assessed as increase in iliac blood flow at 250 ug, ia; format: functional, Canis lupus familiaris, Artery
[10] = test system: Rattus norvegicus; experiment: Antihypertensive activity in spontaneously hypertensive rat assessed as maximum fall in mean arterial pressure at 20 mg/kg, po; format: functional, Artery
[11] = test system: Canis familiaris; experiment: Peripheral vasodilating activity in mongrel dog assessed as increase in iliac blood flow at 1600 ug, ia in presence of isoproterenol and 1000 ug/kg timolol; format: functional, Canis lupus familiaris, Artery

Row | Structure (SMILES) | Activity [1] [mL/min] | ED50 [2] [mg/kg] | ED50 [3] [mg/kg] | Activity [4] [mmHg] | Activity [5] [mmHg] | Activity [6] [mmHg] | Activity [7] [mL/min] | ED50 [8] [mg/kg] | Activity [9] [mL/min] | Activity [10] [mmHg] | Activity [11] [mL/min]
1 | COc1ccc(-c2cnc(-c3ccc(OCC(O)CNC(C)(C)C)cc3)[nH]2)cc1 (racemic) | 20 | > 1 | 0.04 | 12 | 21 | 29 | 25 | – | – | – | –
2 | CC(C)(C)NCC(O)COc1ccc(-c2ncc(C(F)(F)F)[nH]2)c(Cl)c1 (racemic) | – | 0.552 | 0.027 | – | 28 | 36 | 2 | 0.054 | -2 | – | –
3 | CC(C)(C)NCC(O)COc1ccc(-c2ncc(C(F)(F)F)[nH]2)c(Cl)c1Cl (racemic) | – | – | – | – | – | 16 | – | – | – | 49 | –
4 | Cc1cnc(-c2ccc(OC[C@@H](O)CNC(C)(C)C)cc2)[nH]1.O=C(O)/C=C\C(=O)O | 32 | 1 | 0.03 | – | 24 | 19 | 59 | 0.277 | – | 41 | –
5 | CC(C)(C)NCC(O)COc1ccc(-c2ncc(C(F)(F)F)[nH]2)c2c1CCCC2 (racemic) | – | 0.167 | 0.228 | – | – | – | -15 | 0.1 | – | 22 | -10
6 | CC(C)(C)NC[C@H](O)COc1ccc(-c2ncc[nH]2)cc1 | 0 | > 1 | 0.067 | – | 19 | – | 30 | – | – | 41 | –
7 | Cc1cc(OC[C@@H](O)CNC(C)(C)C)ccc1-c1ncc(C(F)(F)F)[nH]1 | – | 0.0927 | 0.0157 | – | 36 | 51 | 36 | 0.0364 | – | – | 39
8 | CC(C)(C)NCC(O)COc1ccc(-c2ncc(-c3cccnc3)[nH]2)cc1 (racemic) | 40 | > 1 | 0.054 | – | – | 28 | 64 | – | – | 13 | –
9 | CC(C)(C)NCC(O)COc1ccc(-c2nc(-c3cccs3)c[nH]2)cc1 (racemic) | 10 | 0.635 | 0.016 | 12 | 36 | 35 | 28 | – | – | 58 | –
10 | CC(C)(C)NC[C@H](O)COc1ccc(-c2ncc(-c3cccs3)[nH]2)cc1.O=C(O)/C=C\C(=O)O | 15 | 0.234 | 0.014 | 9 | 20 | 33 | 23 | 0.433 | – | – | –
11 | NNc1nncc2ccccc12 [HYDRALAZINE] | – | – | – | – | – | – | 66 | – | – | – | –
12 | CC(=O)Nc1ccc(OCC(O)CNC(C)C)cc1 (stereo not drawn) [PRACTOLOL] | – | 1 | 0.115 | – | – | – | – | 1.08 | – | – | –
13 | CC(C)(C)NCC(O)COc1ccc(-c2ncc(-c3ccc(F)cc3)[nH]2)cc1 (racemic) | 32 | 0.139 | 0.019 | – | – | – | 42 | – | – | 13 | –
14 | CC(C)(C)NCC(O)COc1ccc(-c2ncc(-c3ccc(Cl)c(Cl)c3)[nH]2)cc1 (racemic) | 15 | 0.117 | 0.123 | – | 36 | 35 | 56 | 0.097 | – | 49 | –
15 | Cc1cc(OCC(O)CNC(C)(C)C)cc(C)c1-c1ncc(C(F)(F)F)[nH]1 (racemic) | – | > 1 | 0.091 | – | 31 | 20 | 5 | 0.163 | – | 30 | 10
16 | CC(C)(C)NCC(O)COc1ccc(-c2ncc(-c3ccccn3)[nH]2)cc1 (racemic) | – | – | – | – | 6 | 27 | – | – | – | 40 | –
